Test results as given in US20040253224A1, “Mammalian mucinase, its recombinant production, and its use in therapy or prophylaxis against diseases in which mucus is involved or infectious diseases” (priority 2001, published 2004).

What was measured:
[1] = cited from earlier work
[2] = pH dependence of chitinase activity (McIlvaine buffer, 4-methylumbelliferyl substrates); type: biochemical; details: McIlvaine buffer range 1.7-8.5
Experimental: Panel A: pH activity profile of the different chitinases. The pH optima were determined by monitoring enzyme activity at the indicated pH in Mcllvaine buffer. Purified human recombinant chitotriosidase (closed lozenge), purified mouse AMCase (closed circle).
(§1) The pH dependence of chitinase activity of AMCase was determined by incubating purified enzyme at a different pH (Mcllvaine buffer range 1.7-8.5) with 4-methylumbelliferyl substrates. Release of the fluorescent 4-metylumbelliferone was monitored fluorometrically (excitation […]).

[3] = type: physicochemical; details: for enzyme precipitated at 0.5% (w/v) TCA: 0.5% (w/v) trichloroacetic acid
Experimental: Panel C: Precipitation by trichloroacetic acid (TCA). Purified recombinant human chitotriosidase and mouse AMCase were incubated with the indicated percentages of TCA. The amount of remaining enzyme activity after centrifugation is shown as a percentage of initial amounts.
as §1

[4] = chitin degradation products by FACE; type: biochemical; details: FACE analysis
Experimental: FIG. 2. Degradation products with colloidal chitin as substrate. The FACE technique (described in experimental procedures) was used to visualize the cleavage products of recombinant human chitotriosidase and recombinant mouse AMCase using colloidal chitin as substrate. Lane 1, no enzyme added. Lane 2, products formed after incubation with 50 kDa recombinant human chitotriosidase with chitin. Lane 3, products formed with recombinant mouse AMCase and chitin. Lane 4, human chitotriosidase incubated without substrate. Lane 5, mouse AMCase incubated without substrate. Marker lane is indicated with M (sugar polymers are indicated on the right-hand side).
(§2) […]. […] Chitinase enzyme preparations were added in 3 μg/ml.

[5] = stability on pre-incubation at acidic or basic pH; type: physicochemical; details: 30 minutes pre-incubation in McIlvaine buffer
Experimental: Panel B: Effects of acidic pre-incubation. Purified recombinant human chitotriosidase and mouse AMCase were pre-incubated for 30 minutes at the indicated pH in Mcllvaine buffer prior to enzyme activity measurement at the assay pH (see experimental procedures). Activity prior to incubation at the indicated pH is defined as 100%.
as §1

[6] = tested on: Candida albicans strain CAi-4 spheroplasts; assay: chitin content of cell wall of regenerating spheroplasts (Calcofluor white); type: cell-based; details: 3 μg per ml enzyme, 2 hours incubation
Experimental: as §2
In addition, the mouse acidic chitinase and chitotriosidase were both able to digest chitin in the cell wall of regenerating spheroplasts of Candida albicans. The chitin content of the cell wall was determined with the Calcofluor white stain. When regenerating cells were incubated for 2 hours with 3 μg per ml recombinant chitotriosidase or 3 μg per ml recombinant mouse acidic chitinase, the chitin content was reduced by 27% and 33%, respectively.

[7] = expression of full-length cDNA in COS-1 cells, chitinolytic activity; type: biochemical; details: data not shown
Text: These two sequences are most probably splice variants of the human acidic chitinase mRNA.

[8] = specific activity of purified enzyme on 4MU-chitotrioside; type: biochemical; details: pH 5.2
Experimental: (§3) Chitin affinity chromatography was used to purify the enzyme. Detergent-free extracts of mouse tissues were prepared by homogenization in 10 volumes of potassium phosphate buffer pH 6.5, using an Ultra-turrax and centrifugation for 20 minutes at 15,000×g. The mouse intestine extract was adjusted to pH 5.0 by the addition of citric acid (0.2 M); NaCl was added to a final concentration of 2 M. A chitin column was prepared by mixing 10 grams swollen Sepharose G25 fine (Pharmacia, Uppsala, Sweden) with 300 mg of colloidal chitin (prepared as described by Shimahara et al. (Shimahara et al., 1988), followed by equilibration with phosphate-buffered saline (PBS) containing 2M NaCl. The extracts were applied onto the column with a flow speed of 0.4 ml/minute. After extensive washing, bound chitinase was eluted from the column with 8M urea, which was subsequently removed by dialysis. Protein concentrations were determined according to the method of Lowry et al. (Lowry et al 1951) using BSA as a standard. Fractions containing chitinase activity were subjected to SDS-PAGE and Western blotting as described (Renkema et al., 1995).
The specific activity of the purified enzyme was 3.9 nmol 4-methylumbelliferyl-chitotrioside hydrolyzed per mg per hour at pH 5.2, which is almost identical to that of human chitotriosidase.
as §2

[9] = tested on: hyphae of Candida albicans; assay: incubation of hyphae with recombinant AMCase; type: cell-based
[10] = resistance against proteases; type: physicochemical
[11] = binding to chitin particles
Experimental: as §3

[12] = tested on: submaxillary gland mucins; assay: viscosity and flow rate of mucin solution in vertical glass pipette; type: biochemical
Text: The mammalian mucinase, endogenously present at mucosal surfaces in mammals, provides the solution for the above-mentioned problems concerning diseases in which mucus is involved. A mucinase of the invention is capable of cleaving mucus. In one embodiment, a specific mouse (nucleotide sequence SEQ ID NO:3 (see, Table III, below) and amino acid sequence SEQ ID NO:4 (see, Table IV, below)) and human mucinase (nucleotide sequence SEQ ID NO:2 (see, Table II, above) and amino acid sequence SEQ ID NO:1 (see, Table I, above) is provided, called AMCase. It has a catalytically active 39 kDa domain which is connected via a hinge region with a C-terminal mucin-binding domain. To show its mucus-degrading property, we have incubated a mixture of submaxillary gland mucins with recombinant 50 kDa AMCase. The effect of the incubation was examined by analysis with SDS-PAGE and silver staining. […] The flow rate of the mucin solution, as measured in a vertically positioned glass pipette, was increased with almost a factor of 2.

[13] = tested on: Bovine submaxillary gland mucin; assay: degradation of mucin, SDS-PAGE and silver staining; type: biochemical; details: 125 μg mucin, 500 ng enzyme, 0.05M NaAc pH 5.0, overnight 37° C.
Experimental: (§4) FIG. 7. The effect of AMCase on glycoproteins was studied by evaluating the effect of mouse AMCase on mucin, a type of glycoproteins expressed on mucosal surfaces in the airways and gastrointestinal tract. Bovine submaxillary gland mucin (Sigma) 125 μg was dissolved in 40 μl 0.05M NaAc pH 5.0 in the presence or absence of 500 ng mouse AMCase. After overnight incubation at 37° C., the mucin was electrophorized on an SDS-PAGE gel 7.5%, followed by silver staining.
as §4, with “The” for “FIG. 7. The”, “of” for “of mouse”, “glycoprotein” for “type of glycoproteins”, “(7.5% homogeneous,” for “7.5%,”, “staining). As is shown in FIG. 7, the mucin was degraded by treatment with the AMCase.” for “staining.”

CC(=O)N[C@@H](CS)C(=O)O [N-acetylcysteine]
mucolytic activity in vitro ([1]; in vitro): has mucolytic activity in vitro | mucolytic activity in vivo ([1]; in vivo): has not been demonstrated convincingly in vivo

chitotriosidase: human phagocyte chitinase, SEQ ID NO:10, used as comparator [reference compound]
pH optimum (pronounced) [2]: only a broad pH optimum | enzyme precipitated at 0.5% (w/v) TCA [3]: 58% | enzyme precipitated at 2.5% (w/v) TCA ([3]; 2.5% (w/v) trichloroacetic acid): all chitotriosidase precipitates | cleavage products released from chitin [4]: releases mainly chitobioside fragments | effect of pre-incubation at low pH on activity [5]: completely inactivated | chitin content of cell wall reduced by [6]: 27%

human AMCase: human acidic mammalian chitinase/mucinase, amino acid sequence SEQ ID NO:1
chitinolytic activity of expressed protein [7]: protein with chitinolytic activity

mouse AMCase: acidic mammalian chitinase/mucinase of mouse, 50 kDa protein, amino acid sequence SEQ ID NO:4
less pronounced pH optimum [2]: 4.7 pH | pH optimum (pronounced) [2]: 2.3 pH | specific activity of the purified enzyme [8]: 3.9 nmol 4-methylumbelliferyl-chit | specific activity of the purified enzyme ([8]; listed as mouse acidic chitinase): 3.9 nmol 4-methylumbelliferyl-chitotrioside hydrolyzed per mg per hour | effect on hyphae (fungistatic effect) [9]: selective lysis of the growing tip | enzyme remaining unprecipitated at 2.5% (w/v) TCA [3]: 26% | enzyme precipitated at 0.5% (w/v) TCA [3]: remains in solution | resistance against proteases [10]: quite resistant against various proteases | cleavage products released from chitin [4]: releases mainly chitobioside fragments | binding to chitin particles [11]: high affinity | chitin content of cell wall reduced by [6]: 33% | viscosity of the mucin solution after incubation [12]: markedly reduced | increase of flow rate of the mucin solution ([12]; vertically positioned glass pipette): ~2 factor | degradation of mucin [13]: degraded substantially | degradation of mucin ([13]; listed as recombinant 50 kDa AMCase): remarkable reduction in size of the mucins
